Reference: ChEMBL document CHEMBL5608230, “Systematical Mutational Analysis of FRATtide against Osteoclast Differentiation by Alanine Scanning” (ACS Med Chem Lett, 2024)
The source made the active and inactive calls. The rule behind the calls is not given here.

What was measured:
[1] = system: BMMC; assay: Cytotoxicity against C57BL/6J mouse BMMC upto 20 uM incubated for 4 days by CCK-8 assay; assay type: toxicity, cell-based; settings: 96 h, time 4 day
[2] = system: BMMC; assay: Inhibition of osteoclast differentiation in M-CSF/RANKL induced C57BL/6J mouse BMMC at 10 uM medium changed every other day and measured after 7 days by TRAP staining based assay; assay type: functional, cell-based; settings: time 7.0 day
[3] = system: BMMC; assay: Inhibition of F-actin ring formation in RANKL induced C57BL/6J mouse BMMC at 5 to 10 uM medium changed every other day by Hoechst 33342 and TRITC-labeled phalloidin staining based assay; assay type: functional, cell-based; settings: dose 5-10 µM
[4] = system: BMMC; assay: Inhibition of bone resorption in RANKL induced C57BL/6J mouse BMMC at 5 to 10 uM by Cytation-5 staining based assay; assay type: functional, cell-based; settings: dose 5-10 µM

Substance | Activity [1] | also measured
Ac-APHRLLQQLVLSGNLIKEAVRRLHSR-NH2 | Non-Toxic | 
Ac-DAHRLLQQLVLSGNLIKEAVRRLHSR-NH2 | Non-Toxic | 
Ac-DPARLLQQLVLSGNLIKEAVRRLHSR-NH2 | Non-Toxic | 
Ac-DPHALLQQLVLSGNLIKEAVRRLHSR-NH2 | Non-Toxic | 
Ac-DPHRALQQLVLSGNLIKEAVRRLHSR-NH2 | Non-Toxic | 
Ac-DPHRLAQQLVLSANLIKEAVARLHSR-NH2 | Non-Toxic | 
Ac-DPHRLAQQLVLSGNLIKEAVRRLHSR-NH2 | Non-Toxic | inhibition [2]: Active
Ac-DPHRLLAQLVLSGNLIKEAVRRLHSR-NH2 | Non-Toxic | 
Ac-DPHRLLQALVLSGNLIKEAVRRLHSR-NH2 | Non-Toxic | 
Ac-DPHRLLQQAVLSGNLIKEAVRRLHSR-NH2 | Non-Toxic | 
Ac-DPHRLLQQLALSGNLIKEAVRRLHSR-NH2 | Non-Toxic | 
Ac-DPHRLLQQLVASGNLIKEAVRRLHSR-NH2 | Non-Toxic | 
Ac-DPHRLLQQLVLAGNLIKEAVRRLHSR-NH2 | Non-Toxic | 
Ac-DPHRLLQQLVLSANLIKEAVRRLHSR-NH2 | Non-Toxic | inhibition [2]: Active; inhibition [3]: Active; inhibition [4]: Active
Ac-DPHRLLQQLVLSGALIKEAVRRLHSR-NH2 | Non-Toxic | 
Ac-DPHRLLQQLVLSGNAIKEAVRRLHSR-NH2 | Non-Toxic | 
Ac-DPHRLLQQLVLSGNLAKEAVRRLHSR-NH2 | Non-Toxic | 
Ac-DPHRLLQQLVLSGNLIAEAVRRLHSR-NH2 | Non-Toxic | 
Ac-DPHRLLQQLVLSGNLIKAAVRRLHSR-NH2 | Non-Toxic | 
Ac-DPHRLLQQLVLSGNLIKEAARRLHSR-NH2 | Non-Toxic | 
Ac-DPHRLLQQLVLSGNLIKEAVARLHSR-NH2 | Non-Toxic | inhibition [2]: Active; inhibition [3]: Active; inhibition [4]: Active
Ac-DPHRLLQQLVLSGNLIKEAVRALHSR-NH2 | Non-Toxic | 
Ac-DPHRLLQQLVLSGNLIKEAVRRAHSR-NH2 | Non-Toxic | 
Ac-DPHRLLQQLVLSGNLIKEAVRRLASR-NH2 | Non-Toxic | 
Ac-DPHRLLQQLVLSGNLIKEAVRRLHAR-NH2 | Non-Toxic | 
Ac-DPHRLLQQLVLSGNLIKEAVRRLHSA-NH2 | Non-Toxic | 
Ac-DPHRLLQQLVLSGNLIKEAVRRLHSR-NH2 | Non-Toxic | inhibition [2]: Active
